From ChEMBL document CHEMBL4152347 (J Med Chem, 2018)

Columns and labels:
in vivo [1] = conditions: Sprague-Dawley, rat, po, 5 mg/kg
in vitro [2] = conditions: human, MT2 cells
Description: Cytotoxicity against human MT2 cells assessed as reduction in cell viability

in vitro [3] = conditions: rat, liver microsomes
Description: Half life in rat liver microsomes at 0.5 uM after 1 hr in presence of NADPH by LC-MS/MS analysis

in vitro [4] = conditions: human, liver microsomes
Description: Half life in human liver microsomes at 0.5 uM after 1 hr in presence of NADPH by LC-MS/MS analysis

[5] = test system: Human immunodeficiency virus 1; assay: microbe, parasite or virus in culture; conditions: Human immunodeficiency virus 1, MT2
Description: Antiviral activity against wild type HIV1 infected in human MT2 cells after 4 to 5 days by dual luciferase reporter gene assay

[6] = test system: Human immunodeficiency virus 1; assay: microbe, parasite or virus in culture; conditions: Human immunodeficiency virus 1, MT2; remark: listed apart in the source
[7] = test system: Human immunodeficiency virus 1; assay: microbe, parasite or virus in culture; conditions: Human immunodeficiency virus 1, MT2; remark: listed apart in the source
Description: Antiviral activity against HIV1 expressing gag delta V370 mutant infected in human MT2 cells after 4 to 5 days by dual luciferase reporter gene assay

[8] = test system: Human immunodeficiency virus 1; assay: microbe, parasite or virus in culture; conditions: Human immunodeficiency virus 1, MT2; remark: listed apart in the source
Description: Antiviral activity against wild type HIV1 infected in human MT2 cells after 4 to 5 days in presence of 10% FBS and 40% human serum albumin by dual luciferase reporter gene assay

in vivo [9] = conditions: Sprague-Dawley, rat, po, 5 mg/kg; remark: listed apart in the source

| Structure (SMILES) | AUC(0-t) at 6 h (in vivo [1]) [µM·h] | CC50 (in vitro [2]) [nM] | half-life at 1 h, 0.5 µM (in vitro [3]) [h] | half-life at 1 h, 0.5 µM (in vitro [4]) [h] | EC50 [5] [nM] | EC50 [6] [nM] | EC50 [7] [nM] | EC50 [8] [nM] | AUC(0-t) at 24 h (in vivo [9]) [µM·h] |
| --- | --- | --- | --- | --- | --- | --- | --- | --- | --- |
| C=C(C)[C@@H]1CC[C@]2(NC(=O)CN3CCS(=O)(=O)CC3)CC[C@]3(C)[C@H](CC[C@@H]4[C@@]5(C)CC=C(c6ccc(C(=O)O)cc6)C(C)(C)[C@@H]5CC[C@]43C)[C@@H]12 | 8.74 | 9900 | > 2 | > 2 | 2.1 | 3.5 | 18.9 | – | – |
| C=C(C)[C@@H]1CC[C@]2(NCCN3CCC4(C3)CN(S(C)(=O)=O)C4)CC[C@]3(C)[C@H](CC[C@@H]4[C@@]5(C)CC=C(c6ccc(C(=O)O)cc6)C(C)(C)[C@@H]5CC[C@]43C)[C@@H]12 | – | 11000 | > 2 | > 2 | 1.7 | – | 11.4 | 24.5 | – |
| C=C(C)[C@@H]1CC[C@]2(NC(=O)OCCN3CCS(=O)(=O)CC3)CC[C@]3(C)[C@H](CC[C@@H]4[C@@]5(C)CC=C(c6ccc(C(=O)O)cc6)C(C)(C)[C@@H]5CC[C@]43C)[C@@H]12 | – | 9900 | > 2 | > 2 | 4.6 | 10.7 | 93.9 | – | 4.97 |
| C=C(C)[C@@H]1CC[C@]2(C(=O)NCCC(=O)O)CC[C@]3(C)[C@H](CC[C@@H]4[C@@]5(C)CC=C(c6ccc(C(=O)O)cc6)C(C)(C)[C@@H]5CC[C@]43C)[C@@H]12 | – | – | > 2 | > 2 | – | – | – | – | 79.3 |
| C=C(C)[C@@H]1CC[C@]2(NCCN3CC4C(C3)C4NS(C)(=O)=O)CC[C@]3(C)[C@H](CC[C@@H]4[C@@]5(C)CC=C(c6ccc(C(=O)O)cc6)C(C)(C)[C@@H]5CC[C@]43C)[C@@H]12 (some centres not stated) | – | 15200 | > 2 | > 2 | 2.8 | – | 18 | 21.3 | – |
| C=C(C)[C@@H]1CC[C@]2(NC(=O)C(C(C)C)N3CCS(=O)(=O)CC3)CC[C@]3(C)[C@H](CC[C@@H]4[C@@]5(C)CC=C(c6ccc(C(=O)O)cc6)C(C)(C)[C@@H]5CC[C@]43C)[C@@H]12 (some centres not stated) | – | 23500 | > 2 | > 2 | 3.9 | 7.1 | 727 | – | – |
| C=C(C)[C@@H]1CC[C@]2(NCCN3CCN(S(=O)(=O)C(C)C)CC3)CC[C@]3(C)[C@H](CC[C@@H]4[C@@]5(C)CC=C(c6ccc(C(=O)O)cc6)C(C)(C)[C@@H]5CC[C@]43C)[C@@H]12 | – | 11900 | > 2 | > 2 | 5.2 | 9.9 | 64.2 | – | – |
| C=C(C)[C@@H]1CC[C@]2(NCCN3CCC(S(C)(=O)=O)CC3)CC[C@]3(C)[C@H](CC[C@@H]4[C@@]5(C)CC=C(c6ccc(C(=O)O)cc6)C(C)(C)[C@@H]5CC[C@]43C)[C@@H]12 | – | 13700 | > 2 | > 2 | 1.8 | 2.7 | 12 | 6.1 | – |
| C=C(C)[C@@H]1CC[C@]2(NC(=O)C(C)N3CCS(=O)(=O)CC3)CC[C@]3(C)[C@H](CC[C@@H]4[C@@]5(C)CC=C(c6ccc(C(=O)O)cc6)C(C)(C)[C@@H]5CC[C@]43C)[C@@H]12 (some centres not stated) | – | > 10000 | > 2 | > 2 | 1.8 | 5 | 123 | – | – |
| C=C(C)[C@@H]1CC[C@]2(NCCN3CCCCS3(=O)=O)CC[C@]3(C)[C@H](CC[C@@H]4[C@@]5(C)CC=C(c6ccc(C(=O)O)cc6)C(C)(C)[C@@H]5CC[C@]43C)[C@@H]12 | – | 9530 | > 2 | > 2 | 4 | 2.5 | 36.8 | – | 4.24 |
| C=C(C)[C@@H]1CC[C@]2(NCCN3C[C@@H]4C[C@H]3CN4S(C)(=O)=O)CC[C@]3(C)[C@H](CC[C@@H]4[C@@]5(C)CC=C(c6ccc(C(=O)O)cc6)C(C)(C)[C@@H]5CC[C@]43C)[C@@H]12 | – | 9300 | > 2 | > 2 | 2.7 | 2.9 | 9.3 | – | 7.08 |
| C=C(C)[C@@H]1CC[C@]2(NC(=O)NCCN3CCS(=O)(=O)CC3)CC[C@]3(C)[C@H](CC[C@@H]4[C@@]5(C)CC=C(c6ccc(C(=O)O)cc6)C(C)(C)[C@@H]5CC[C@]43C)[C@@H]12 | – | 17600 | > 2 | > 2 | 5.9 | 4.9 | 63.5 | – | – |
| C=C(C)[C@@H]1CC[C@]2(NC(=O)CCN3CCS(=O)(=O)CC3)CC[C@]3(C)[C@H](CC[C@@H]4[C@@]5(C)CC=C(c6ccc(C(=O)O)cc6)C(C)(C)[C@@H]5CC[C@]43C)[C@@H]12 | – | 16300 | > 2 | > 2 | 6.8 | 11.2 | 101 | – | – |
| C=C(C)[C@@H]1CC[C@]2(NCCN3CCN(S(=O)(=O)CC)CC3)CC[C@]3(C)[C@H](CC[C@@H]4[C@@]5(C)CC=C(c6ccc(C(=O)O)cc6)C(C)(C)[C@@H]5CC[C@]43C)[C@@H]12 | – | 13400 | > 2 | > 2 | 3.7 | 10.2 | 19.6 | – | – |
| C=C(C)[C@@H]1CC[C@]2(NCCC3CCS(=O)(=O)CC3)CC[C@]3(C)[C@H](CC[C@@H]4[C@@]5(C)CC=C(c6ccc(C(=O)O)cc6)C(C)(C)[C@@H]5CC[C@]43C)[C@@H]12 | – | 4550 | > 2 | > 2 | 3.7 | – | – | 37.5 | – |
| C=C(C)[C@@H]1CC[C@]2(NCCO)CC[C@]3(C)[C@H](CC[C@@H]4[C@@]5(C)CC=C(c6ccc(C(=O)O)cc6)C(C)(C)[C@@H]5CC[C@]43C)[C@@H]12 | 4.98 | 8480 | > 2 | > 2 | – | 9.9 | 66 | – | – |
| C=C(C)[C@@H]1CC[C@]2(NCCNC3CCN(S(C)(=O)=O)C3)CC[C@]3(C)[C@H](CC[C@@H]4[C@@]5(C)CC=C(c6ccc(C(=O)O)cc6)C(C)(C)[C@@H]5CC[C@]43C)[C@@H]12 (some centres not stated) | – | 10700 | > 2 | > 2 | 1.9 | – | – | 13.7 | – |
| C=C(C)[C@@H]1CC[C@]2(C(=O)NCCN3CCS(=O)(=O)CC3)CC[C@]3(C)[C@H](CC[C@@H]4[C@@]5(C)CC=C(c6ccc(C(=O)O)cc6)C(C)(C)[C@@H]5CC[C@]43C)[C@@H]12 | – | 7900 | > 2 | > 2 | 2.4 | 5.5 | 60.5 | – | 2.47 |
| C=C(C)[C@@H]1CC[C@]2(NCCNC3CCS(=O)(=O)C3)CC[C@]3(C)[C@H](CC[C@@H]4[C@@]5(C)CC=C(c6ccc(C(=O)O)cc6)C(C)(C)[C@@H]5CC[C@]43C)[C@@H]12 (some centres not stated) | – | 11100 | > 2 | > 2 | 2.2 | 3.7 | 11.6 | 15.9 | – |
| C=C(C)[C@@H]1CC[C@]2(NCCN3CC4(C3)CN(S(C)(=O)=O)C4)CC[C@]3(C)[C@H](CC[C@@H]4[C@@]5(C)CC=C(c6ccc(C(=O)O)cc6)C(C)(C)[C@@H]5CC[C@]43C)[C@@H]12 | – | 12000 | > 2 | > 2 | 1.6 | – | 13.3 | 7.4 | – |
